Results published in patent US20250179047A1, “5-[7-(3,4-DIHYDRO-1H-ISOQUINOLINE-2-CARBONYL)-1,2,3,4 TETRAHYDROISOQUINOLIN-6-YL]-1H-PYRROLE-3-CARBOXAMIDE DERIVATIVES, PHARMACEUTICAL COMPOSITIONS CONTAINING THEM AND THEIR USES AS PRO-APOPTOTIC AGENTS” (LES LABORATOIRES SERVIER, priority 2022, published 2025).

What was measured:
KMS-12-PE Bcl-2 G101V = assay: In vitro cytotoxicity CellTiter-Glo 48 h, KMS-12-PE Bcl-2 G101V; type: cell-based; conditions: for Ratio (G101V/WT): C50 KMS-12-PE Bcl-2 G101V over C50 KMS-12-PE Bcl-2 WT; for IC50: Homo sapiens, KMS-12-PE, 48 h, CellTiter-Glo, C50 = concentration needed to reach 50% of the cellular viability
Procedure, shortened: (§1)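 KMS-12-PE myeloma cells lentivirally transduced with Bcl-2 WT or G101V (TagRFP-sorted), exposed to compound 11-point dose-response for 48 h at 37 °C, 5% CO2. Viability read by CellTiter-Glo ATP luminescence; C50 is the concentration giving 50% cellular viability.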

KMS-12-PE Bcl-2 WT = assay: In vitro cytotoxicity CellTiter-Glo 48 h, KMS-12-PE Bcl-2 WT; type: cell-based; conditions: C50 = concentration needed to reach 50% of the cellular viability
Procedure, shortened: as §1

BCL2 D111A = BCL2 D111A (Homo sapiens, UniProt P10415, D111A); assay: TR-FRET competitive binding assay, BCL2 D111A; conditions: Ki determined from IC50, read-out: TR_FRET EKI_Bcl2 D111A
Procedure, shortened: (§2)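 Competitive TR-FRET displacement of fluorescein-PUMA peptide (2 or 20 nM) from 0.5 nM terbium-labelled N-terminal Halo-fusion BCL2 (1-207, wild type or mutant) or BCLXL (2-196), expressed in E. coli. Buffer 50 mM Hepes pH 7.5, 150 mM NaCl, 5% DMSO; 2 h at 23°C. 520/495 nm ratio fitted over 11 points for IC50, converted to Ki.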

BCLXL WT = BCLXL WT (Homo sapiens (Human), UniProt Q07817); assay: TR-FRET competitive binding assay, BCLXL WT; conditions: for Ki: BCLXL WT, Ki determined from IC50, read-out: TR_FRET EKI BclxL; for TR_FRET EKI BCLxL/WT selectivty ratio: ratio Ki BCLxL / Ki BCL2 WT
Procedure, shortened: as §2

BCL2 G101V [1] = target: BCL2 G101V (Homo sapiens, UniProt P10415, G101V); assay: TR-FRET competitive binding assay, BCL2 G101V; conditions: BCL2 G101V; Ki determined from IC50; read-out: TR_FRET EKI_Bcl2 G101V
Procedure, shortened: as §2

BCL2 G101V [2] = assay: TR-FRET competitive binding assay, BCL2 G101V; set-up: species or system human; conditions: ratio Ki BCL2 G101V / Ki BCL2 WT
Procedure, shortened: as §2

BCL2 D103Y = BCL2 D103Y (Homo sapiens, UniProt P10415, D103Y); assay: TR-FRET competitive binding assay, BCL2 D103Y; conditions: Ki determined from IC50, read-out: TR_FRET EKI_Bcl2 D103Y
Procedure, shortened: as §2

BCL2 WT = BCL2 WT (Homo sapiens (Human), UniProt P10415); assay: TR-FRET competitive binding assay, BCL2 WT; conditions: Ki determined from IC50, read-out: TR_FRET EKI_Bcl2 WT
Procedure, shortened: as §2

BCL2 F104I = BCL2 F104I (Homo sapiens, UniProt P10415, F104I); assay: TR-FRET competitive binding assay, BCL2 F104I; conditions: Ki determined from IC50, read-out: TR_FRET EKI_Bcl2 F104I
Procedure, shortened: as §2

Sequence of BCLXL WT (Q07817 other isoform, or with tags, fused parts or gaps): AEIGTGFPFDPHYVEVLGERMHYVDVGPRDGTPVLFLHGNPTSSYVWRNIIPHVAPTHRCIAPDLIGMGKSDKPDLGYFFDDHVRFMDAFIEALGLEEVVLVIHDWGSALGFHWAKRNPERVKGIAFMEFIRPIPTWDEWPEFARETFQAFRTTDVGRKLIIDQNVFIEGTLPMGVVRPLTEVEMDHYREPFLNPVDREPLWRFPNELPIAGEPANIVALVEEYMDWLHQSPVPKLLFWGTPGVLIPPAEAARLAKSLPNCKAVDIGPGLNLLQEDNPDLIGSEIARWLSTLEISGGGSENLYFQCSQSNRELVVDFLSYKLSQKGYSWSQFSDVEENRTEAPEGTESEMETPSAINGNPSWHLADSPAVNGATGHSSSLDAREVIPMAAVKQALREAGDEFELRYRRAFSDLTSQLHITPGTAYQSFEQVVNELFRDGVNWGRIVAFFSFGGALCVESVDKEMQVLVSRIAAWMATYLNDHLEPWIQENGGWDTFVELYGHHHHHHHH

Ki (BCL2 D111A) [nM] | Ki (BCLXL WT) [nM] | TR_FRET EKI BCLxL/WT selectivty ratio (BCLXL WT) | Ki (BCL2 G101V [1]) [nM] | TR_FRET EKI G101V/WT selectivty ratio (BCL2 G101V [2]) | Ki (BCL2 D103Y) [nM] | Ki (BCL2 WT) [nM] | Ki (BCL2 F104I) [nM] | SMILES | Ratio (G101V/WT) (KMS-12-PE Bcl-2 G101V) | IC50 (KMS-12-PE Bcl-2 G101V) [µM] | IC50 (KMS-12-PE Bcl-2 WT; Homo sapiens, KMS-12-PE) [µM] | IC50 (KMS-12-PE Bcl-2 WT) [µM]
0.13 | 2.6 | 35.1 | 0.3 | 4.2 | 0.28 | 0.07 | 0.18 | Cc1c(N(C(=O)c2cc(-c3cc4c(cc3C(=O)N3Cc5ccccc5C[C@H]3CN3CCCC[C@H]3C)CN(C(=O)Cc3ccc(OCCN5CCOCC5)cc3F)CC4)n(C)c2C)c2ccc(O)cc2)cc(C#N)n1C [Example 123, N-(5-cyano-1,2-dimethyl-1H-pyrrol-3-yl)-5-[2-(2-{2-fluoro-4-[2-(morpholin-4-yl)ethoxy]phenyl}acetyl)-7-[(3S)-3-{[(2R)-2-methylpiperidin-1-yl]methyl}-1,2,3,4-tetrahydroisoquinoline-2-carbonyl]-1,2,3,4-tetrahydroisoquinolin-6-yl]-N-(4-hydroxyphenyl)-1,2-dimethyl-1H-pyrrole-3-carboxamide] | 4.82 | 0.0185 | 0.0038 | –
0.31 | 1.6 | 10.7 | 1.2 | 8.0 | 0.68 | 0.15 | 1.02 | Cc1c(C(=O)N(c2ccc(O)cc2)c2cc(C#N)n(C3CC3)c2C)cc(-c2cc3c(cc2C(=O)N2Cc4ccccc4C[C@H]2C)CN(C(=O)Cc2ccc(OCCN4CCOCC4)cc2)CC3)n1C [Example 71, N-(5-cyano-1-cyclopropyl-2-methyl-pyrrol-3-yl)-N-(4-hydroxyphenyl)-1,2-dimethyl-5-[7-[(3R)-3-methyl-3,4-dihydro-1H-isoquinoline-2-carbonyl]-2-[2-[4-(2-morpholinoethoxy)phenyl]acetyl]-3,4-dihydro-1H-isoquinolin-6-yl]pyrrole-3-carboxamide] | 3.88 | 0.0356 | 0.0092 | –
0.15 | 1 | 10.0 | 0.5 | 4.8 | 0.32 | 0.1 | 0.82 | Cc1c(N(C(=O)c2cc(-c3cc4c(cc3C(=O)N3Cc5ccccc5C[C@H]3C)CN(C(=O)Cc3ccc(CCN5CCOCC5)cc3)CC4)n(C)c2C)c2ccc(O)cc2)cc(C#N)n1C [Example 38, N-(5-cyano-1,2-dimethylpyrrol-3-yl)-N-(4-hydroxyphenyl)-1,2-dimethyl-5-(7-{[(3R)-3-methyl-3,4-dihydro-1H-isoquinolin-2-yl]carbonyl}-2-(2-{4-[2-(morpholin-4-yl)ethyl]phenyl}acetyl)-3,4-dihydro-1H-isoquinolin-6-yl)pyrrole-3-carboxamide] | 5.57 | 0.0509 | 0.0091 | –
0.17 | 2.8 | 100.0 | 0.2 | 5.6 | 0.08 | 0.03 | 0.3 | Cc1c(N(C(=O)c2cc(-c3cc4c(cc3C(=O)N3Cc5ccccc5C[C@H]3CN3CCCCC3)CN(C(=O)Cc3ccc(OCCN5CCC(F)CC5)cc3F)CC4)n(C)c2C)c2ccc(O)cc2)cc(C#N)n1C [Example 115, N-(5-cyano-1,2-dimethyl-1H-pyrrol-3-yl)-5-[2-(2-{2-fluoro-4-[2-(4-fluoropiperidin-1-yl)ethoxy]phenyl}acetyl)-7-[(3S)-3-[(piperidin-1-yl)methyl]-1,2,3,4-tetrahydroisoquinoline-2-carbonyl]-1,2,3,4-tetrahydroisoquinolin-6-yl]-N-(4-hydroxyphenyl)-1,2-dimethyl-1H-pyrrole-3-carboxamide] | 6.05 | 0.0458 | 0.0072 | –
0.14 | 4.1 | 52.6 | 0.7 | 9.4 | 0.8 | 0.08 | 1.12 | Cc1c(N(C(=O)c2cc(-c3cc4c(cc3C(=O)N3Cc5ccccc5C[C@H]3C)CN(C(=O)Cc3ccc(OCCN5CCOCC5)cc3)CC4)n(C)c2C)c2ccccc2)cc(C#N)n1C [Example 65, N-(5-cyano-1,2-dimethylpyrrol-3-yl)-1,2-dimethyl-5-(7-{[(3R)-3-methyl-3,4-dihydro-1H-isoquinolin-2-yl]carbonyl}-2-(2-{4-[2-(morpholin-4-yl)ethoxy]phenyl}acetyl)-3,4-dihydro-1H-isoquinolin-6-yl)-N-phenylpyrrole-3-carboxamide] | 15 | 0.0414 | – | 0.0028
0.4 | 5.3 | 27.9 | 0.6 | 2.9 | 0.46 | 0.19 | 0.52 | COc1ccc(N(C(=O)c2cc(-c3cc4c(cc3C(=O)N3Cc5ccccc5C[C@H]3C)CN(C(=O)Cc3ccc(OCCN5CCOCC5)cc3)CC4)n(C)c2C)c2ccc(O)cc2)cc1C#N [Example 81, N-(3-cyano-4-methoxyphenyl)-N-(4-hydroxyphenyl)-1,2-dimethyl-5-(7-{[(3R)-3-methyl-3,4-dihydro-1H-isoquinolin-2-yl]carbonyl}-2-(2-{4-[2-(morpholin-4-yl)ethoxy]phenyl}acetyl)-3,4-dihydro-1H-isoquinolin-6-yl)pyrrole-3-carboxamide] | 5.6429 | 0.0395 | 0.007 | –
0.09 | 1.1 | 52.4 | 0.1 | 2.8 | 0.07 | 0.02 | 0.04 | Cc1c(N(C(=O)c2cc(-c3cc4c(cc3C(=O)N3Cc5ccccc5C[C@H]3CCN3CCCCC3)CN(C(=O)Cc3ccc(OCCN5CCOCC5)cc3F)CC4)n(C)c2C)c2ccc(O)cc2)cc(C#N)n1C [Example 74, N-(5-cyano-1,2-dimethyl-1H-pyrrol-3-yl)-5-[2-(2-{2-fluoro-4-[2-(morpholin-4-yl)ethoxy]phenyl}acetyl)-7-[(3S)-3-[2-(piperidin-1-yl)ethyl]-1,2,3,4-tetrahydroisoquinoline-2-carbonyl]-1,2,3,4-tetrahydroisoquinolin-6-yl]-N-(4-hydroxyphenyl)-1,2-dimethyl-1H-pyrrole-3-carboxamide] | 2.36 | 0.0885 | 0.0375 | –
1.63 | 9.4 | 18.8 | 1.3 | 2.6 | 0.79 | 0.5 | 10.2 | Cc1c(N(C(=O)c2cc(-c3cc4c(cc3C(=O)N3Cc5ccccc5C[C@H]3C)CN(C(=O)Cc3ccc(C5CCN(CC(F)F)CC5)cc3F)CC4)n(C)c2C)c2ccc(O)cc2)cc(C#N)n1C [Example 48, N-(5-cyano-1,2-dimethylpyrrol-3-yl)-5-[2-(2-{4-[1-(2,2-difluoroethyl)piperidin-4-yl]-2-fluorophenyl}acetyl)-7-{[(3R)-3-methyl-3,4-dihydro-1H-isoquinolin-2-yl]carbonyl}-3,4-dihydro-1H-isoquinolin-6-yl]-N-(4-hydroxyphenyl)-1,2-dimethylpyrrole-3-carboxamide] | 6.44 | 0.0268 | 0.0048 | –
0.24 | 2.8 | 49.1 | 0.4 | 6.5 | 0.21 | 0.06 | 0.73 | Cc1c(N(C(=O)c2cc(-c3cc4c(cc3C(=O)N3Cc5ccccc5C[C@H]3CN3CCCCC3)CN(C(=O)Cc3ccc(OCCN(C)C5CC5)cc3)CC4)n(C)c2C)c2ccc(O)cc2)cc(C#N)n1C [Example 102, N-(5-cyano-1,2-dimethyl-1H-pyrrol-3-yl)-5-{2-[2-(4-{2-[cyclopropyl(methyl)amino]ethoxy}phenyl)acetyl]-7-[(3S)-3-[(piperidin-1-yl)methyl]-1,2,3,4-tetrahydroisoquinoline-2-carbonyl]-1,2,3,4-tetrahydroisoquinolin-6-yl}-N-(4-hydroxyphenyl)-1,2-dimethyl-1H-pyrrole-3-carboxamide] | 6.03 | 0.0424 | 0.0075 | –
